Measurements: the COVID Moonshot data (paper PMC7615835)
Several values for one entry are separate records, joined by “and”; a condition that tells them apart may be missing. Equal values may be shown once.

The compounds below were run against SARS-CoV-2 Main Protease (SARS-CoV-2) (UniProt P0DTD1).

| SMILES | IC50 |
| --- | --- |
| O=C(NCCc1cccc(F)c1)C(c1cccnc1)N(Cc1ccccc1)C(=O)c1ccco1 (stereo not drawn) | > 99.5 µM |
| Cc1cccc2ncnc(NC(C)c3ccc4[nH]c(=O)[nH]c4c3)c12 (stereo not drawn) | > 99.5 µM |
| OCCn1c(CSc2nc3ccccc3o2)nc2ccc(Cl)cc21 | 0.327 µM |
| O=C1CCCCN1c1ccc(N(Cc2ccccc2)C(=O)Cc2[nH]nc3ccccc23)cc1 | 39.4 µM |
| COc1cc2c(cc1OC)CN(c1cc(Cl)cc(CC(=O)Nc3cncc4ccccc34)c1)CC2 | 1.65 µM |
| O=C(NCCc1cccc(F)c1)C(c1cccnc1)N(C(=O)c1cocn1)C1COc2ccccc2C1 (stereo not drawn) | > 99.5 µM |
| O=C(Cc1cccc(Cl)c1)Nc1nnc2ccccn12 | > 99.5 µM |
| Cc1ccncc1N(CC#N)C(=O)Cc1cccc(Cl)c1 | > 99.5 µM |
| O=C(Nc1c[nH]c(=O)c2ccccc12)C1CCOc2ccc(Cl)cc21 (stereo not drawn) | > 99.5 µM |
| CN1CC(C)(C(=O)Nc2cncc3cc(S(C)(=O)=O)ccc23)c2cc(Cl)ccc2S1(=O)=O (stereo not drawn) | 0.523 µM |
| O=C(Cc1ccc(Cl)c(F)c1)Nc1cncc2ccccc12 | 2.03 µM |
| NCc1cn(CC(=O)N(Cc2ccsc2)c2ccc(-n3cnnc3)cc2)nn1 | > 99.5 µM |
| Cc1ccncc1NC(=O)Cc1cc(Cl)cc(OC2COC2)c1 | 16 µM |
| O=C(CN1CC(C(=O)Nc2cncc3ccccc23)c2cc(Cl)ccc2C1=O)NCC(F)(F)F (stereo not drawn) | 0.34 µM |
| COC(=O)C1CC(NC(=O)C(c2cccnc2)N(C(=O)c2cocn2)c2ccc(C(C)(C)C)cc2)C1 (stereo not drawn) | 3.99 µM |
| CN(Cc1nc2ccccc2s1)C(=O)c1ccc2c(c1)nnn2C | > 99.5 µM |
| O=C(Cc1cccc(Cl)c1)Nc1[nH]nc2cccnc12 | > 99.5 µM |
| O=C(Cc1cc(Cl)cc(N2CCN(c3ccc(Br)cn3)CC2)c1)Nc1cncc2ccccc12 | 3.17 µM |
| N#Cc1ccc(Nc2cc(Cl)cc(CC(=O)Nc3cncc4ccccc34)c2)c(I)c1 | 1.62 µM |
| O=C(Cc1cc(Cl)cc(Nc2ccc(F)cc2I)c1)Nc1cncc2ccccc12 | 1.76 µM |
| COc1nccnc1C(C(=O)NCCc1cccc(F)c1)N(C(=O)c1cocn1)c1ccc(C(C)(C)C)cc1 (stereo not drawn) | 94.9 µM |
| O=C(CCl)N1CCCN(S(=O)(=O)c2c(F)cccc2F)CC1 | 20.2 µM |
| CC(C)S(=O)(=O)c1ccc(N(C(=O)c2cocn2)C(C(=O)NCCc2cccc(F)c2)c2cccnc2)cc1 (stereo not drawn) | 66.1 µM |
| CCCNC(=O)CN1CC(C(=O)Nc2cncc3cc(S(C)(=O)=O)ccc23)c2cc(Cl)ccc2C1=O (stereo not drawn) | 0.127 µM and 0.209 µM |
| O=C(O)[C@@H](c1ccccc1)N1Cc2ccccc2C1=O (stereo in doubt) | 1.78 µM |

| SMILES | IC50 |
| --- | --- |
| COC(=O)[C@@H]1C[C@H](NC(=O)C(c2cccnc2)N(C(=O)c2cocn2)c2ccc(C(C)(C)C)cc2)CN1C(=O)OC(C)(C)C (stereo in doubt) | 2.66 µM |
| CC(C)(C)c1ccc(N(C(=O)c2cocn2)C(C(=O)NC2CCOC2)c2cccnc2)cc1 (stereo not drawn) | 2.77 µM |
| COc1ccc(N(C(=O)c2ccco2)C(C(=O)NCCc2cccc(F)c2)c2cccnc2)cc1OCCO (stereo not drawn) | > 99.5 µM |
| O=C(CC1(C(=O)Nc2cncc3ccccc23)CCOc2ccc(Cl)cc21)N1CCCCC1c1ccn[nH]1 (stereo not drawn) | 0.616 µM |
| O=C(Cc1cc(Cl)cc(N[C@H]2C(O)O[C@H](CO)[C@@H](O)[C@@H]2O)c1)Nc1cncc2ccccc12 (stereo in doubt) | 2.92 µM |
| O=C(Nc1cccnc1)N1CCC(CN2CCc3ccccc32)CC1 | > 99.5 µM |
| Cc1ccncc1NC(=O)Cc1cc(Cl)cc(OCc2ncc[nH]2)c1 | > 99.5 µM |
| O=C(Cc1cccc(Cl)c1)Nc1cncc2c1CCCN2 | 7.27 µM |
| COc1ccc2c(N)nn(C(=O)Cc3cccc(Cl)c3)c2c1 | > 99.5 µM |
| O=C1CC(Oc2cc(Cl)cc(CC(=O)Nn3cnc4ccccc4c3=O)c2)N1 (stereo not drawn) | > 99.5 µM |
| O=C(Cc1cc(Cl)cc(NCCc2ccc(Cl)c(Cl)c2)c1)Nc1cncc2ccccc12 | 5.41 µM |
| OC(Cc1cccc(Cl)c1)Cn1cncn1 (stereo not drawn) | 65.3 µM |
| O=C(CC1(C(=O)Nc2cncc3ccccc23)CCOc2ccc(Cl)cc21)N1CCN(C2CCOC2)CC1 (stereo not drawn) | 6.68 µM |
| CNC(=O)CN1Cc2ccc(Cl)cc2C2(CCN(c3cncc4ccc(OCCN(C)C)cc34)C2=O)C1 (stereo not drawn) | 0.21 µM |
| CC1CN(C)CCN1C(=O)CC1(C(=O)Nc2cncc3ccccc23)CCOc2ccc(Cl)cc21 (stereo not drawn) | 7.87 µM and 4.85 µM |
| Cc1cc(NC(=O)C2CCOc3ccc(Cl)cc32)ncc1N (stereo not drawn) | > 99.5 µM |
| O=C(c1ccc2nnnn2c1)N1CCn2c(cc3ccccc32)C1 | > 99.5 µM |
| CO[C@@H]1COC[C@H]1n1cc(C(=O)N(c2ccc(C(C)(C)C)cc2)C(C(=O)NCCc2cccc(F)c2)c2cccnc2)nn1 (stereo in doubt) | > 99.5 µM |
| O=C(Cc1cc(Cl)ccc1Cl)Nc1cncc2ccccc12 | 1.02 µM |
| CNC(=O)CN1CC(C)(C(=O)Nc2cncc3cc(F)ccc23)c2cc(Cl)ccc2S1(=O)=O (stereo not drawn) | 0.248 µM |
| COCC1(C(=O)Nc2cncc3ccccc23)CCOc2cc(Cl)c(Cl)cc21 (stereo not drawn) | 4.04 µM |
| O=C1N(c2cncc3ccccc23)CCC12CN(S(=O)(=O)CC1(C(F)F)CC1)Cc1ccc(Cl)cc12 (stereo not drawn) | 0.155 µM |
| N#Cc1ccc(N(C(=O)c2cocn2)C(C(=O)NCCc2cccc(F)c2)c2cccnc2)cc1 (stereo not drawn) | > 99.5 µM |
| O=C(Cc1cc(Cl)cc(Nc2c(Cl)c(F)nc(F)c2Cl)c1)Nc1cncc2ccccc12 | 2.16 µM |
| CNC(=O)CN1CC(C)(C(=O)Nc2cncc3ccccc23)c2cc(Cl)ccc2C1=O (stereo not drawn) | 0.128 µM and 0.214 µM |

| SMILES | IC50 |
| --- | --- |
| CC(C)(C)c1cc(Nc2cc(Cl)cc(CC(=O)Nc3cncc4ccccc34)c2)n(-c2ccccc2)n1 | 2.04 µM |
| CCS(=O)(=O)c1ccc(CNS(=O)(=O)c2cnc(-c3ccccc3)s2)s1 | > 99.5 µM |
| C=CC(=O)N(c1ccc(C(F)(F)F)cc1)C(C(=O)NCCc1cccc(F)c1)c1cncc(C#N)c1 (stereo not drawn) | 11.1 µM |
| O=C(Cc1cc(Cl)cc(N2CCc3c([nH]c4ccccc34)C2)c1)Nc1cncc2ccccc12 | 2.02 µM |
| CC1(CS(=O)(=O)N2Cc3ccc(Cl)cc3C3(CCN(c4cncc5ccccc45)C3=O)C2)CC1 (stereo not drawn) | 0.265 µM |
| CC(=O)c1ccccc1C(=O)N(c1ccc(C(C)(C)C)cc1)C(C(=O)NCCc1cccc(F)c1)c1cccnc1 (stereo not drawn) | > 99.5 µM |
| O=C(Cc1cc(Cl)cc(Nc2cccc(I)c2)c1)Nc1cncc2ccccc12 | 2.22 µM |
| N#Cc1cnn(-c2ccc([N+](=O)[O-])cc2)c1Nc1cc(Cl)cc(CC(=O)Nc2cncc3ccccc23)c1 | 1.84 µM |
| O=C(NCCc1cccc(F)c1)C(c1cccnc1)N(C(=O)c1cocn1)C1CC2CCCC2C1 (stereo not drawn) | > 99.5 µM |
| O=C(Nc1cncc2ccccc12)C1COCc2c(Cl)cccc21 (stereo not drawn) | 7.02 µM |
| CC(C)(C)c1ccc(N(C(=O)c2cocn2)C(C(=O)NCC(=O)Nc2cccc([N+](=O)[O-])c2)c2cccnc2)cc1 (stereo not drawn) | 14.4 µM |
| CCCCc1nc(-c2nccn2CC(F)(F)F)c[nH]1 | 23.1 µM |
| C[C@@H](C(=O)Nc1cncnc1)c1ccccc1 (stereo in doubt) | > 99.5 µM |
| O=C(Cc1cccc(Cl)c1)Nc1cncc2cc(F)cc(Cl)c12 | 0.718 µM |
| O=C(NCCc1cccc(F)c1)C(c1cccnc1)N(C(=O)c1cocn1)c1ccccc1 (stereo not drawn) | 89.2 µM |
| CC1(C(=O)Nc2cncc3c2CCCC3)CNS(=O)(=O)c2ccc(Cl)cc21 (stereo not drawn) | > 99.5 µM |
| COC(=O)c1ccc(-c2cc(Cl)cc(CC(=O)Nc3cnccc3C)c2)c(OC)c1 | 9.62 µM and 16.8 µM |
| O=C(Cc1cccc(Cl)c1)NC1C(=O)Nc2ccccc21 (stereo not drawn) | > 99.5 µM |
| COc1ccccc1CN(C(=O)c1cocn1)C(C(=O)NCCc1cccc(F)c1)c1cccnc1 (stereo not drawn) | > 99.5 µM |
| COc1ccccc1NC1CN(C(=O)c2cc(=O)[nH]c3ccccc23)C1 | > 99.5 µM |
| CC(C(=O)NS(=O)(=O)c1cnn(-c2cccc(C(F)(F)F)c2)c1)n1cnc(C#N)n1 (stereo not drawn) | > 99.5 µM |
| Cc1nc2ccc(NC(=O)NCc3ccc4[nH]c(=O)[nH]c4c3)cc2o1 | > 99.5 µM |
| CN(C(=O)OC(C)(C)C)[C@H]1CCN(c2cc(Cl)cc(CC(=O)Nc3cncc4ccccc34)c2)C1 (stereo in doubt) | 4.21 µM |
| Cc1ccc(S(=O)(=O)NC2CCN(C(=O)CCl)CC2)cc1 | 33.5 µM |
| O=C(Nc1cncc2ccccc12)c1ccnc2cc(Cl)c(Cl)cc12 | 28.1 µM |

| SMILES | IC50 |
| --- | --- |
| O=C(CCl)N1CCN(S(=O)(=O)c2ccsc2)[C@H](C(=O)N2CCOCC2)C1 (stereo in doubt) | 2.88 µM |
| Cn1ccc2cncc(NC(=O)Cc3cccc(Cl)c3)c21 | 1.45 µM |
| Cc1ccc(Nc2ccccc2C(=O)N2CCC(C3CCNC3)CC2)cc1 (stereo not drawn) | > 99.5 µM |
| COCc1cc(Cl)cc(CN2CCN(C(=O)CCl)CC2)c1 | 4.77 µM |
| COc1ccc2c(NC(=O)Cc3cccc(Cl)c3)[nH]nc2c1 | > 99.5 µM |
| N#CC1(CS(=O)(=O)N2Cc3ccc(Cl)cc3C3(CCN(c4cncc5ccc(OCCN6CCCC6)cc45)C3=O)C2)CC1 (stereo not drawn) | 0.225 µM |
| O=C(Nc1cncc2ccccc12)C1CCOc2c1ccc(Cl)c2Cl (stereo not drawn) | 3.31 µM |
| CC(C)CS(=O)(=O)N1Cc2ccc(Cl)cc2C(C(=O)Nc2cncc3ccc(C(C)(C)O)cc23)C1 (stereo not drawn) | 1.22 µM |
| CN(C)c1ccc(N(Cc2cccc(Cl)c2)C(=O)Cn2nnc3ccccc32)cc1 | 0.497 µM |
| Cc1cc2c(cc1C)C(C(=O)N1CCCCC1c1cn[nH]c1)CO2 (stereo not drawn) | > 99.5 µM |
| COc1ccc(S(=O)(=O)N2CCN(C(=O)CCl)CC2)cc1 | 27.5 µM |
| NC(=O)CN1Cc2ccc(Cl)cc2C(C(=O)Nc2cncc3ccccc23)C1 (stereo not drawn) | 0.109 µM and 0.118 µM and 0.13 µM |
| COC(C)(C)CS(=O)(=O)N1Cc2ccc(Cl)cc2C(C(=O)Nc2cncc3ccccc23)C1 (stereo not drawn) | 0.2 µM |
| CC(C)(C)c1ccc(N(C(=O)c2ccc(Cl)o2)C(C(=O)NCCc2cccc(F)c2)c2cccnc2)cc1 (stereo not drawn) | 0.315 µM |
| O=C(Nc1ccncc1)[C@@H](c1ccccc1)N1Cc2ccccc2C1=O (stereo in doubt) | > 99.5 µM |
| Cn1ncc(C(=O)N(c2ccc(C(C)(C)C)cc2)C(C(=O)NCCc2cccc(F)c2)c2cccnc2)n1 (stereo not drawn) | 17.6 µM |
| O=C(Cc1cc(Cl)cc(Nc2c(F)c(F)cc(F)c2F)c1)Nc1cncc2ccccc12 | 2.03 µM |
| Cc1c(NC(=O)C2CCOc3ccc(Cl)cc32)cncc1N(C)C (stereo not drawn) | > 99.5 µM |
| O=C(O)CCc1cc2c(cc1S(=O)(=O)N1CCN(c3ccccc3)CC1)OCO2 | > 99.5 µM |
| CC1=C[C@@H](c2c(O)cc(-c3cc4ccc(O)cc4o3)cc2O)[C@@H](C(=O)c2ccc(O)cc2O)[C@H](c2ccc(O)cc2O)C1 (stereo in doubt) | > 99.5 µM |
| COCc1ccc2cncc(NC(=O)Cc3cccc(Cl)c3)c2c1 | 2.21 µM |
| COc1cccc(CNc2cc(Cl)cc(CC(=O)Nc3cncc4ccccc34)c2)c1OC | 2.48 µM |
| Cc1cccc(CC2CCN(C(=O)CCl)CC2)c1 | 14.7 µM |
